Results: paper PMC11065314, “Identification of compounds that cause axonal dieback without cytotoxicity in dorsal root ganglia explants and intervertebral disc cells with potential to treat pain via denervation” (PLOS ONE, 2024)
Several values for one entry are separate records, joined by “and”; a condition that tells them apart may be missing. Equal values may be shown once. Where a name gives a salt, the structure may show the parent alone.

Tests used:
[1] = tested on: Human NP cells; assay: Quantification of viable NP cells (LIVE/DEAD staining); assay type: cell-based
Experimental: (§1) Nucleus pulposus (NP) cells are native matrix-producing cells at the core of intervertebral discs. To repurpose axonal dieback compounds to denervate aberrant nerve fibers in discs related to chronic LBP, the cytocompatibility of these compounds with NP cells must be evaluated. Human NP cells (Sciencell, 4800) from donor 1 (Lot #5954) and donor 2 (Lot# 21579) were cultured according to previously established protocol in our lab adapted from manufacturer’s instructions. Briefly, passage three cells from both donors were expanded in Poly-L-lysine (PLL) (Sciencell, 413) coated T75 flasks. Cells were then lifted and reseeded at 5,000 cells/cm^2 onto two PLL-coated 48-well plates (Greiner Bio-One, 677180) and allowed to attach overnight before treating with Pyr or Vcr. One plate was used for LIVE/DEAD staining and the other plate was used for AlamarBlue assay as described below. Complete NP cell media (Sciencell, 4801) containing basal media supplemented with 1% penicillin-streptomycin, 1% growth supplement and 2% FBS were used for maintaining cells in culture. To mimic the hypoxic disc environment, NP cells were cultured in a hypoxia chamber (Stem Cell Technologies, 27310) with 5% CO2, 3.5% O2, 91.5% N2 (Airgas) during the entire culture and treatment incubation period.
(§2) Pyr stock solution was diluted in complete NP media to achieve final concentrations of 500 μM, 1 mM and 2 mM Pyr. 16.9 μg/mL and 169 μg/mL Vcr stock solutions were prepared in 1X PBS then diluted in complete NP media to achieve final concentrations of 10, 25, 50, 100 nM and 200, 500 nM, respectively. Cells were incubated with 250 μL of final treatment solutions in duplicate wells per donor for three days. Cells in negative control group were incubated with 250 μL of complete NP media with 0.55% v/v 1X PBS as solvent control. On day 3 post-treatment, brightfield images at 4X magnification were taken using a BioTek Cytation1 Plate Imager (Agilent) to verify cell proliferation and observe cell morphology. Three experimental replicates were performed for each cell donor.
(§3) On day 3 of incubation with drug, media treatment solutions were removed from each well and cells were carefully rinsed with 200 μL of sterile 1X PBS to remove excess media. NP cells were stained with 150 μL of 2 μM Calcein AM and 6 μM EtHD-1 solution from LIVE/DEAD Viability/Cytotoxicity Kit (Thermo Fisher Scientific, L3224) for 30 minutes at room temperature protected from light. After staining, cells were gently rinsed with 200 μL sterile 1X PBS to remove excess staining solution. Excitation and emission wavelengths for live cell fluorescence is 495 and 515 nm and dead cell fluorescence is 495 and 635 nm. Using a BioTek Cytation1 Plate Imager (Agilent), GFP filter cube (Agilent, 1225101, ex: 451.5–486.5 nm, em: 505.5–544.5 nm) and RFP filter cubes (Agilent, 1225103, ex: 511-551nm, em: 573–613 nm), fluorescent images at 4X magnification of four regions per well were taken. Gen5 v3.11 software (Agilent) was used to count green (live) and orange (dead) cells in fluorescent images. Dead NP cell staining was verified and evident by positive EtHD-1 orange staining in kill control wells where cells were treated with 70% EtOH for 10 minutes (S4 Fig). Percentage of live cells were calculated by calculating the percentage of live cells over total cell counts as shown in Eq 3.
(§4) Cellviability(%)=Livecellcounts/Livecellcounts+Deadcellcounts×100% (3)

[2] = as above; assay type: cell-based, human; details: both sexes, human, human nucleus pulposus (NP) cells; 10 to 500 nM, day 3 post-treat; read-out: Percentage of viable cells
Experimental: as §1, §2, §3, §4

SMILES: CC[C@]1(O)C[C@H]2CN(CCc3c([nH]c4ccccc34)[C@@](C(=O)OC)(c3cc4c(cc3OC)N(C=O)[C@H]3[C@@](O)(C(=O)OC)[C@H](OC(C)=O)[C@]5(CC)C=CCN6CC[C@]43[C@@H]65)C2)C1 [Vcr, vincristine sulfate]
- Percent live (%) ([1]; 10 nM, donor 1, day 3, single wells (Exp, Rep)): 90.3134% and 98.5594% and 99.6198% and 83.3102% and 99.7603% and 99.2074%
- Percent live (%) ([1]; 25 nM, donor 1, day 3, single wells (Exp, Rep)): 89.2996% and 89.1566% and 99.4877% and 99.866% and 98.4016% and 98.5294%
- Percent live (%) ([1]; 25 nM, donor 2, day 3, single wells (Exp, Rep)): 97.6127% and 96.3918% and 89.1374% and 87.5648% and 97.9899% and 92.8571%
- Percent live (%) ([1]; 50 nM, donor 1, day 3, single wells (Exp, Rep)): 99.536% and 94.3223% and 95.1923% and 99.2108% and 99.6933% and 99.3363%
- Percent live (%) ([1]; 50 nM, donor 2, day 3, single wells (Exp, Rep)): 98.5163% and 97.4555% and 94.0054% and 88.1057% and 96.8127% and 94.0758%
- Percent live (%) ([1]; 100 nM, donor 1, day 3, single wells (Exp, Rep)): 98.9571% and 99.7976% and 95.6589% and 96.3247% and 98.866% and 99.2797%
- Percent live (%) ([1]; 100 nM, donor 2, day 3, single wells (Exp, Rep)): 99.5495% and 99.5885% and 95.3125% and 93.5614% and 98.018% and 96.1078%
- Percent live (%) ([1]; 200 nM, donor 1, day 3, single wells (Exp, Rep)): 96.7883% and 99.5461% and 93.2203% and 99.7674% and 98.7402% and 97.893%
- Percent live (%) ([1]; 200 nM, donor 2, day 3, single wells (Exp, Rep)): 98.9101% and 97.7221% and 91.7808% and 91.6988% and 97.8182% and 96.8701%
- Percent live (%) ([1]; 500 nM, donor 1, day 3, single wells (Exp, Rep)): 99.2% and 97.9245% and 96.5986% and 97.28% and 92.5651% and 91.0506%
- viability at 3 days [2]: > 81%
